# Where a name gives a salt, the structure may show the parent alone.
# Tests used:
# [1] = Hydrolysis of ester prodrugs in human plasma solutions (HPLC); conditions: for half-life: pH 7.4; for kinetics (order) of hydrolysis in human plasma: 80% human plasma at 37° C., initial concentration about 10^-4 M
# Procedure: Solutions of various derivatives of this invention in aqueous buffer solutions or 50-80% human plasma solutions (pH 7.4) were kept at 37° C. The initial concentration of the derivatives was in the range 3×10^-4 -10^-5 M. At various times an aliquot of the solutions was withdrawn and analyzed by HPLC for remaining derivative as well as for parent acid. For the plasma solutions the aliquot withdrawn was deproteinized with methanol, ethanol or acetonitrile and after centrifugation, the clear supernatant was injected on HPLC.
# An HPLC method was used for the determination of the ester derivatives and their parent acids. In this method a reversed-phase LiChrosorb RP-8 column (250×4 mm) was eluted at ambient temperature with mixtures of methanol and 0.01M acetate buffer pH 5.0, methanol and 0.01M phosphate buffer pH 4.5 or methanol and 0.02M phosphate buffer pH 3.5. the composition of the eluant was adjusted for each compound in order to provide an appropriate retention time and separation of ester and the corresponding acid. The flow-rate was 0.6-1.6 ml/min and the column effluent was monitored spectrophotometrically at an appropriate wavelength. Quantitation of the compounds was done by measurement of the peak heights in relation to those of standards chromatographed under the same conditions.
# [2] = Solubility in water or aqueous solutions; conditions: for solubility: water
# [3] = cited from earlier work
# [4] = cited from earlier work; remark: listed apart in the source
# [5] = Hydrolysis in aqueous buffer solution pH 7.4; assay type: physicochemical; conditions: pH 7.4, 37° C., read-out: half-life of hydrolysis in pure buffer solution
# [6] = Stability in acidic media (0.01M HCl); assay type: physicochemical; conditions: 37° C., read-out: hydrolysis in 0.01M HCl
# [7] = Oral bioavailability study in rabbits (plasma concentrations); assay type: in vivo
# [8] = not given; remark: listed apart in the source
compound,measurement,setting,value
"COC(=O)c1ccc(O)cc1 [4-Hydroxybenzoic acid methyl ester, reference compound]",half-life,[1]; 80% plasma,> 3000 min
"COC(=O)Cc1ccc(C(=O)c2ccc(C)cc2)n1C [Tolmetin methyl ester, reference compound]",half-life,[1]; 80% plasma,1140 min
COCCN(CCOC)C(=O)COC(=O)c1ccccc1 [Example 23b],half-life,[1]; 50% plasma,0.25 min
"COC(=O)CCC(=O)c1ccc(-c2ccccc2)cc1 [Fenbufen methyl ester, reference compound]",half-life,[1]; 80% plasma,282 min
CC(C(=O)OCC(=O)N(C)C)c1ccc(-c2ccccc2)c(F)c1 (centres unmarked) [Example 58],half-life,[1]; plasma,10.8 min
"CCN(CC)C(=O)COC(=O)[C@@H](C)c1ccc2cc(OC)ccc2c1 [Example 35, 2-[(+)-6-METHOXY-α-METHYL-2-NAPHTHALENEACETYLOXY]-N,N-[…]]",kinetics (order) of hydrolysis in human plasma,[1],first-order kinetics
CN(C)CCN(C)C(=O)COC(=O)c1ccccc1 [Example 23a],"t1/2, half-life of hydrolysis in 50% human plasma",[1]; 50% human plasma (pH 7.4) at 37° C.,0.12 min
same,solubility,[2],> 100000 µg/mL
COc1ccc2c(c1)c(CC(=O)OCC(=O)N(C)CCO)c(C)n2C(=O)c1ccc(Cl)cc1 [Example 63],half-life,[1]; plasma,140 min
"COC(=O)[C@H]1CC[C@H](CN)CC1 [Tranexamic acid methyl ester, reference compound]",half-life,[1]; 80% plasma,> 180 min
O=C(OCC(=O)N1CCCCCC1)c1ccccc1,half-life,[1]; 50% plasma,1 min
same,solubility,[2],750 µg/mL
COc1ccc2cc([C@H](C)C(=O)OCC(=O)N(C)C)ccc2c1 [Example 52],half-life,[1]; plasma,1.5 min
Cc1c(Cl)cccc1Nc1ccccc1C(=O)OCC(=O)N(C)C [Example 65],half-life,[1]; plasma,2.8 min
"CC(C(=O)OCC(=O)N(C)CC(N)=O)c1cccc(C(=O)c2ccccc2)c1 (centres unmarked) [Ketoprofen (R1=CH3, R2=CH2CONH2)]",kinetics (order) of hydrolysis in human plasma,[1],first-order kinetics
same,half-life,[1]; plasma,2.3 min
CCN(CC)C(=O)COC(=O)CCC(=O)c1ccc(-c2ccccc2)cc1 [Example 61],half-life,[1]; 80% plasma,3.8 min
same,half-life,[1]; plasma,3.8 min
CCOC(=O)[C@H](CCc1ccccc1)N[C@@H](C)C(=O)N1CCC[C@H]1C(=O)O [Enalapril],availability of the active parent acid,"[3]; Todd & Heel, 1986",incomplete availability of the active parent acid
same,hydrolysis by plasma enzymes / stability in plasma,[4],Plasma enzymes do not hydrolyze the ester
CC(C(=O)OCC(=O)N(C)C)c1cccc(C(=O)c2ccccc2)c1 (centres unmarked) [Example 55],half-life,[1]; plasma,1.1 min
"CN(CC(N)=O)C(=O)COC(=O)c1ccccc1O [Example 37, 2-[2-HYDROXYBENZOYLOXY]-(N-METHYL-N-CARBAMOYLMETHYL)-ACETAMIDE]",half-life,[1]; plasma,0.33 min
O=C(OCC(=O)N1CCC1)c1ccccc1,half-life,[1]; 50% plasma,0.83 min
same,solubility,[2],5400 µg/mL
CN(C)C(=O)CCOC(=O)c1ccccc1 [Example 21],half-life,[1]; 50% plasma,5.6 min
COc1ccc2c(c1)c(CC(=O)OCC(=O)N(CCO)CCO)c(C)n2C(=O)c1ccc(Cl)cc1 [Example 64],half-life,[1]; plasma,88 min
"COC(=O)Cc1c(C)n(C(=O)c2ccc(Cl)cc2)c2ccc(OC)cc12 [Indomethacin methyl ester, reference compound]",half-life,[1]; 80% plasma,9000 min
CN(C)C(=O)COC(=O)CCC(=O)c1ccc(-c2ccccc2)cc1 [Example 60],half-life,[1]; plasma,9.2 min
CC(C)CN(CC(C)C)C(=O)COC(=O)c1ccccc1 [Example 15],half-life,[1]; 50% plasma,< 1.5 min
same,solubility,[2],81 µg/mL
"CCN(CC)C(=O)COC(=O)c1ccccc1 [Example 10, 2-(benzoyloxy)-N,N-diethylacetamide]",half-life,[5],> 41.7 days
same,degraded at 3 h,[6],< 1%
same,"S, solubility in water",,2000 µg/mL
COc1ccc2cc([C@H](C)C(=O)OCC(=O)N(C)CC(N)=O)ccc2c1 [Example 53],half-life,[1]; plasma,2.5 min
O=C(OCC(=O)N(C1CCCCC1)C1CCCCC1)c1ccccc1 [Example 20],half-life,[1]; 50% plasma,407 min
"COC(=O)c1ccccc1Nc1cccc(Cl)c1C [Tolfenamic acid methyl ester, reference compound]",half-life,[1]; 80% plasma,6000 min
"COc1ccc2cc([C@H](C)C(=O)OCC(=O)N(CCO)CCO)ccc2c1 [Example 44, 2-[(+)-6-METHOXY-α-METHYL-2-NAPHTHALENEACETYLOXY]-N,N-(DI-β-HYDROXYETHYL)ACETAMIDE]",absorption following oral administration,[7],efficiently absorbed
same,conversion of prodrug to naproxen in vivo,[7],rapidly converted back to naproxen in vivo
same,plasma concentration of intact naproxen prodrug,[7]; equivalent of 4.8 mg/kg naproxen,< 100 ng/mL
same,solubility in 0.01M HCl relative to parent naproxen,"[2]; 0.01M HCl, versus naproxen",more than 20 -fold
"CCOC(=O)c1ccc(N)cc1 [4-Aminobenzoic acid ethyl ester, reference compound]",half-life,[1]; 80% plasma,> 6000 min
"CCOC(=O)[C@@H](N)Cc1ccc(O)cc1 [L-Tyrosine ethyl ester, reference compound]",half-life,[1]; 80% plasma,59 min
Br.CCN(CC)C(=O)COC(=O)[C@@H](N)Cc1ccccc1 [Example 38],kinetics (order) of hydrolysis in human plasma,[1],first-order kinetics
NC(=O)[C@@H]1CCCN1C(=O)COC(=O)c1ccccc1,half-life,[1]; 50% plasma,2.3 min
same,log P (partition coefficient between octanol and water),[8],0.20
same,solubility,[2],1500 µg/mL
CCN(CC)C(=O)COC(=O)c1ccccc1O [Example 80],half-life,[1]; 80% plasma,0.08 min
same,half-life,[1]; plasma,0.08 min
CCN(CCO)C(=O)COC(=O)c1ccccc1Nc1cccc(Cl)c1C [Example 67],half-life,[1]; plasma,3 min
CCN(C)C(=O)COC(=O)c1ccccc1 [Example 9],half-life,[1]; 50% plasma,0.1 min
CCOC(=O)[C@H](C)C[C@@H](C)C(=O)N1c2ccccc2C[C@H]1C(=O)O [Pentopril],part of oral dose deesterified in vivo to the active parent acid,"[3]; oral, Rakhit & Tipnis, 1985",less than 50%
same,hydrolysis by plasma enzymes / stability in plasma,[4],highly stable in human plasma
"CC(C)Cc1ccc(C(C)C(=O)OCC(=O)N(C)CC(N)=O)cc1 (stereo not drawn) [Example 41, 2-[α-METHYL-4-(2-METHYLPROPYL)BENZENEACETYLOXY]-(N-METHYL-N-CARBAMOYLMETHYL)ACETAMIDE]",half-life,[1]; plasma,9.6 min
O=C(OCC(=O)N1CCCC1=O)c1ccccc1,half-life,[1]; 50% plasma,18 min
same,log P (partition coefficient between octanol and water),[8],1.83
same,solubility,[2],490 µg/mL
O=C(OCC(=O)N1CCCC1)c1ccccc1,half-life,[1]; 50% plasma,5.7 min
same,solubility,[2],6300 µg/mL
CC(C)Cc1ccc(C(C)C(=O)OCC(=O)N(C)C)cc1 (centres unmarked) [Example 54],half-life,[1]; plasma,8.6 min
"CN(C)CC(=O)OCCN(C)C(=O)COC(=O)c1ccccc1 [R1=CH3, R2=CH2CH2OOCCH2N(CH3)2, n=1]",half-life,[1]; 50% plasma,0.08 min
same,solubility,[2],> 200000 µg/mL
CN1CCN(C(=O)COC(=O)c2ccccc2O)CC1 [Salicylic acid],half-life,[1]; plasma,22 min
O=C(OCC(=O)N1CCOCC1)c1ccccc1,half-life,[1]; 50% plasma,4.9 min
same,log P (partition coefficient between octanol and water),[8],0.90
same,solubility,[2],4200 µg/mL
CCN(CC)C(=O)COC(=O)c1cc(-c2ccc(F)cc2F)ccc1O [Example 70],half-life,[1]; plasma,79 min
"CC(C)Cc1ccc(C(C)C(=O)OCC(=O)N(C)CC(=O)NCN2CCOCC2)cc1 (stereo not drawn) [Example 51, 2-[α-METHYL-4-(2-METHYLPROPYL)BENZENEACETYLOXY]-(N-METHYL-N-(N'-MORPHOLINOMETHYLCARBAMOYL)METHYL)ACETAMIDE HYDROCHLORIDE]",half-life,[1]; plasma,10.8 min
O=C(OCC(=O)N1CCC(O)CC1)c1ccccc1,half-life,[1]; 50% plasma,5.8 min
C=CCN(CC=C)C(=O)COC(=O)c1ccccc1 [Example 13],half-life,[1]; 50% plasma,0.08 min
same,"S, solubility in water",,710 µg/mL
same,log P (partition coefficient between octanol and water),[8],2.34
"CCN(CC)C(=O)COC(=O)Cc1ccc(C(=O)c2ccc(C)cc2)n1C [Tolmetin (R1=C2H5, R2=C2H5)]",half-life,[1]; 80% plasma,13.4 min
same,half-life,[1]; plasma,13.4 min
CN(C)C(=O)COC(=O)c1ccccc1O [Example 79],half-life,[1]; plasma,0.08 min
CCN(CC)C(=O)COC(=O)CC1=C(C)/C(=C/c2ccc([S+](C)[O-])cc2)c2ccc(F)cc21 (centres unmarked) [Example 73],half-life,[1]; plasma,26 min
CN(CC(N)=O)C(=O)COC(=O)Cc1ccc(-c2ccccc2)cc1 [Example 57],half-life,[1]; plasma,2.1 min
CCN(CC)C(=O)COC(=O)C(C)c1ccc(-c2ccccc2)c(F)c1 (centres unmarked) [Example 59],half-life,[1]; plasma,4.7 min
CC1CCCC(C)N1C(=O)COC(=O)c1ccccc1 (centres unmarked),half-life,[1]; 50% plasma,0.4 min
same,solubility,[2],150 µg/mL
O=C(OCC(=O)N1CCCCC1)c1ccccc1,half-life,[1]; 50% plasma,2.5 min
same,log P (partition coefficient between octanol and water),[8],1.95
same,solubility,[2],780 µg/mL
"O=C(OCC(=O)N(CCO)CCO)c1ccccc1 [Example 17, 2-(benzoyloxy)-N-N-(di-β-hydroxyethyl)acetamide]","S, solubility in water",,720000 µg/mL
same,solubility,[2],> 700000 µg/mL
CN1CCN(C(=O)COC(=O)c2ccccc2)CC1,half-life,[1]; 50% plasma,12.7 min
same,solubility,[2],> 100000 µg/mL
CCCCN(CCCC)C(=O)COC(=O)c1ccccc1 [Example 14],"S, solubility in water",,80 µg/mL
COC(=O)[C@@H]1CCCN1C(=O)COC(=O)c1ccccc1,half-life,[1]; 50% plasma,1.9 min
CCN(CC)C(=O)COC(=O)c1ccccc1Nc1cccc(Cl)c1C [Example 66],half-life,[1]; 80% plasma,5 min
same,half-life,[1]; plasma,5 min
CCN(CC)C(=O)COC(=O)C(C)c1cccc(C(=O)c2ccccc2)c1 (centres unmarked) [Example 56],half-life,[1]; 80% plasma,0.5 min
same,half-life,[1]; plasma,0.5 min

# Reference: patent publication US5073641A, “Prodrug derivatives of carboxylic acid drugs” (priority 1986, dated 1991)
